Laboratory results as given in US9902716B2, “Fluorinated benzofuranyl-pyrimidine derivatives containing a sulfone group” (Bayer Pharma Aktiengesellschaft, priority 2014, dated 2018).

Assays:
[1] = molecular target: T1, CDK2/CycE (Homo sapiens, UniProt P24941); assay: CDK2/CycE high ATP kinase assay (Method 2b, TR-FRET); format: biochemical; settings: 2 mM ATP
T1 construct: GST; purchased ProQinase GmbH (Freiburg, Germany); host or cells: insect cells (Sf9)
Protocol: 2b. CDK2/CycE High ATP Kinase Assay:
CDK2/CycE-inhibitory activity of compounds of the present invention at 2 mM adenosine-tri-phosphate (ATP) was quantified employing the CDK2/CycE TR-FRET (TR-FRET=Time Resolved Fluorescence Energy Transfer) assay as described in the following paragraphs.
Recombinant fusion proteins of GST and human CDK2 and of GST and human CycE, expressed in insect cells (Sf9) and purified by Glutathion-Sepharose affinity chromatography, were purchase from ProQinase GmbH (Freiburg, Germany). As substrate for the kinase reaction biotinylated peptide biotin-Ttds-YISPLKSPYKISEG (C-terminus in amid form) was used which can be purchased e.g. form the company JERINI peptide technologies (Berlin, Germany).
For the assay 50 nl of a 100 fold concentrated solution of the test compound in DMSO was pipetted into a black low volume 384 well microtiter plate (Greiner Bio-One, Frickenhausen, Germany), 2 μl of a solution of CDK2/CycE in aqueous assay buffer [50 mM Tris/HCl pH 8.0, 10 mM MgCl2, 1.0 mM dithiothreitol, 0.1 mM sodium ortho-vanadate, 0.01% (v/v) Nonidet-P40 (Sigma)] were added and the mixture was incubated for 15 min at 22° C. to allow pre-binding of the test compounds to the enzyme before the start of the kinase reaction. Then the kinase reaction was started by the addition of 3 μl of a solution ATP (3.33 mM=> final conc. in the 5 μl assay volume is 2 mM) and substrate (1.25 μM=> final conc. in the 5 μl assay volume is 0.75 μM) in assay buffer and the resulting mixture was incubated for a reaction time of 25 min at 22° C. […]
The resulting mixture was incubated 1 h at 22° C. to allow the formation of complex between the phosphorylated biotinylated peptide and the detection reagents. Subsequently the amount of phosphorylated substrate was evaluated by measurement of the resonance energy transfer from the Euchelate to the streptavidine-XL. Therefore, the fluorescence emissions at 620 nm and 665 nm after excitation at 350 nm wer measured in a TR-FRET reader, e.g. a Rubystar (BMG Labtechnologies, Offenburg, Germany) or a Viewlux (Perkin-Elmer). […]

[2] = molecular target: T2, CDK9/CycT1 (Homo sapiens, UniProt P50750); assay: CDK9/CycT1 kinase assay (Method 1a, TR-FRET); format: biochemical; settings: 10 μM ATP; for IC50: Method 1a; for Selectivity CDK9 over CDK2: IC50 (CDK2)/IC50 (CDK9): Methods 1a and 2a
T2 construct: Recombinant full-length His-tagged human CDK9 and CycT1; His; purchased Invitrogen PV4131; host or cells: insect cells
T2 sequence (P50750 whole entry): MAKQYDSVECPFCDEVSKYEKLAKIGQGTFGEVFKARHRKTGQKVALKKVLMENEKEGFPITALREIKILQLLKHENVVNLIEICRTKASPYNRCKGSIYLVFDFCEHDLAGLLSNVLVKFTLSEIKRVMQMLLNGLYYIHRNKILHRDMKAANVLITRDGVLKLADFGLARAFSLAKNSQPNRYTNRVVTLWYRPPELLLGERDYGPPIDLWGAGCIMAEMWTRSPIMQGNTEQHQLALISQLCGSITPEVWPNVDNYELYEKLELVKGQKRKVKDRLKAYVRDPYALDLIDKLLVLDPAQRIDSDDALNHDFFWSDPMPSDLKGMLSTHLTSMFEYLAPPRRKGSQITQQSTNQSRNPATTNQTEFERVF
T2 sequence (O60563 whole entry partner): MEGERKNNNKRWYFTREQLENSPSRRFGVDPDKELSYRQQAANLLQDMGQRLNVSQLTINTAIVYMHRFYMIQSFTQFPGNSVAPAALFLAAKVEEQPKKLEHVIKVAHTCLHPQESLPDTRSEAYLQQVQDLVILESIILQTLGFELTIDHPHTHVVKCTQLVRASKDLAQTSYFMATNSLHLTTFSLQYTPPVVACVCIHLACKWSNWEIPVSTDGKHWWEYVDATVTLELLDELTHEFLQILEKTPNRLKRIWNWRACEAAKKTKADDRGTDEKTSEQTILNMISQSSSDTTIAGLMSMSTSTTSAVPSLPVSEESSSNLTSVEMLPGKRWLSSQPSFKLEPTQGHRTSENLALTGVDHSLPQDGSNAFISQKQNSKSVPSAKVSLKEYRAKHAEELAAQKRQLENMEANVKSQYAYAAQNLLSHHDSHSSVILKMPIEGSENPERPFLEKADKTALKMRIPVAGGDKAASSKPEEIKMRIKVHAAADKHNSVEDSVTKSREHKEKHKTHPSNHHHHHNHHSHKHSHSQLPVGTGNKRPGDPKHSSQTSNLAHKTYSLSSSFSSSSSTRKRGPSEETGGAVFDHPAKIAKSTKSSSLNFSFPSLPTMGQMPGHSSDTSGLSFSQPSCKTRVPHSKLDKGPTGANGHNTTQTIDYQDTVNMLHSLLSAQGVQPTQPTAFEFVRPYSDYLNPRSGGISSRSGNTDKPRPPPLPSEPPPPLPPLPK
From the text: 1a. CDK9/CycT1 Kinase Assay:
CDK9/CycT1-inhibitory activity of compounds of the present invention was quantified employing the CDK9/CycT1 TR-FRET assay as described in the following paragraphs:
Recombinant full-length His-tagged human CDK9 and CycT1, expressed in insect cells and purified by Ni-NTA affinity chromatography, were purchased from Invitrogen (Cat. No PV4131). As substrate for the kinase reaction biotinylated peptide biotin-Ttds-YISPLKSPYKISEG (C-terminus in amid form) was used which can be purchased e.g. form the company JERINI Peptide Technologies (Berlin, Germany). For the assay 50 nl of a 100 fold concentrated solution of the test compound in DMSO was pipetted into a black low volume 384 well microtiter plate (Greiner Bio-One, Frickenhausen, Germany), 2 μl of a solution of CDK9/CycT1 in aqueous assay buffer [50 mM Tris/HCl pH 8.0, 10 mM MgCl2, 1.0 mM dithiothreitol, 0.1 mM sodium ortho-vanadate, 0.01% (v/v) Nonidet-P40 (Sigma)] were added and the mixture was incubated for 15 min at 22° C. to allow pre-binding of the test compounds to the enzyme before the start of the kinase reaction. Then the kinase reaction was started by the addition of 3 μl of a solution of adenosine-tri-phosphate (ATP, 16.7 μM=> final conc. in the 5 μl assay volume is 10 μM) and substrate (1.67 μM=> final conc. in the 5 μl assay volume is 1 μM) in assay buffer and the resulting mixture was incubated for a reaction time of 25 min at 22° C. The concentration of CDK9/CycT1 was adjusted depending of the activity of the enzyme lot and was chosen appropriate to have the assay in the linear range, typical concentrations were in the range of 1 μg/mL. The reaction was stopped by the addition of 5 μl of a solution of TR-FRET detection reagents (0.2 μM streptavidine-XL665 [Cisbio Bioassays, Codolet, France] and 1 nM anti-RB(pSer807/pSer811)-antibody from BD Pharmingen [#558389] and 1.2 nM LANCE EU-W1024 labeled anti-mouse IgG antibody [Perkin-Elmer, product no. AD0077]) in an aqueous EDTA-solution (100 mM EDTA, 0.2% (w/v) bovine serum albumin in 100 mM HEPES/NaOH pH 7.0).
The resulting mixture was incubated 1 h at 22° C. to allow the formation of complex between the phosphorylated biotinylated peptide and the detection reagents. Subsequently the amount of phosphorylated substrate was evaluated by measurement of the resonance energy transfer from the Euchelate to the streptavidine-XL. Therefore, the fluorescence emissions at 620 nm and 665 nm after excitation at 350 nm was measured in a HTRF reader, e.g. a Rubystar (BMG Labtechnologies, Offenburg, Germany) or a Viewlux (Perkin-Elmer). The ratio of the emissions at 665 nm and at […] was taken as the measure for the amount of phosphorylated substrate. The data were normalised (enzyme reaction without inhibitor=0% inhibition, all other assay components but no enzyme=100% inhibition).

Row | SMILES | IC50 [1] [nM] | IC50 [2] [nM] | Selectivity CDK9 over CDK2: IC50 (CDK2)/IC50 (CDK9) [2]
1 | CS(=O)(=O)Cc1cccc(Nc2ncc(F)c(-c3ccc(F)c4ccoc34)n2)c1 [Example 1, 5-Fluoro-4-(4-fluoro-1-benzofuran-7-yl)-N-{3-[(methylsulfonyl)methyl]-phenyl}pyrimidin-2-amine] | 1320 | 4 | 44
2 | CCS(=O)(=O)Cc1cccc(Nc2ncc(F)c(-c3ccc(F)c4ccoc34)n2)c1 [Example 2, N-{3-[(Ethylsulfonyl)methyl]phenyl}-5-fluoro-4-(4-fluoro-1-benzofuran-7-yl)pyrimidin-2-amine] | 917 | 3 | 37
3 | CS(=O)(=O)Cc1cc(F)cc(Nc2ncc(F)c(-c3ccc(F)c4ccoc34)n2)c1 [Example 3] |  | 2 | 
4 | Cc1cc(CS(C)(=O)=O)cc(Nc2ncc(F)c(-c3ccc(F)c4ccoc34)n2)c1 [Example 4, 5-Fluoro-4-(4-fluoro-1-benzofuran-7-yl)-N-{3-methyl-5-[(methylsulfonyl)methyl]-phenyl}pyrimidin-2-amine] | 8560 | 2 | 29
